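1) Cells in 96-well plates. 2) Compound, 48 h, 5 concentrations. 3) Linear interpolation between surrounding doses. 4) Unreached endpoint = highest concentration. GI50 marks 50% less growth.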 Calls of active or inactive are those of the source. Rule as the data show it: active = GI50 up to about 1.1 µM and inactive = higher.
Legend:
Assay in all cases: NCI-60 cell line screen, 48 h
HOP-62 = test system: HOP-62
NCI-H522 = test system: NCI-H522
OVCAR-8 = test system: OVCAR-8
UO-31 = test system: UO-31
TK-10 = test system: TK-10
LOX IMVI = test system: LOX IMVI
OVCAR-3 = test system: OVCAR-3
NCI-H226 = test system: NCI-H226
OVCAR-5 = test system: OVCAR-5
786-0 = test system: 786-0
NCI-H23 = test system: NCI-H23
SF-295 = test system: SF-295
COLO 205 = test system: COLO 205
IGROV-1 = test system: IGROV-1
SF-539 = test system: SF-539
SNB-75 = test system: SNB-75
RPMI-8226 = test system: RPMI-8226

Measured: GI50

Cc1ccc(S(=O)(=O)N/N=C/c2oc(-c3ccncc3)c(-c3ccncc3)c2[N+](=O)[O-])cc1
inactive: HOP-62 > 100 µM | NCI-H522 > 100 µM | OVCAR-8 > 100 µM | UO-31 > 100 µM | TK-10 > 100 µM | LOX IMVI > 100 µM | OVCAR-3 > 100 µM | NCI-H226 > 100 µM | OVCAR-5 > 100 µM | 786-0 > 100 µM | NCI-H23 > 100 µM | SF-295 > 100 µM | COLO 205 > 100 µM | IGROV-1 > 100 µM | SF-539 > 100 µM | SNB-75 > 100 µM

C=CCO[C@H]1CC[C@@]2(C)C(CC[C@]3(C)C2CC=C2[C@@H]4[C@@H](C)C(C)CC[C@]4(C(=O)O)CCC23C)C1(C)C (some centres undefined)
inactive: HOP-62 22.1 µM | NCI-H522 13.2 µM | OVCAR-8 18.4 µM | UO-31 15 µM | TK-10 18.2 µM | LOX IMVI 13.5 µM | OVCAR-3 15.7 µM | NCI-H226 18.6 µM | 786-0 15.7 µM | NCI-H23 14.9 µM | SF-295 14.2 µM | COLO 205 16 µM | IGROV-1 16.6 µM | SF-539 17 µM | SNB-75 15.6 µM

C/C(=C\c1ccccc1)C(O)S(=O)(=O)O (centres undefined)
inactive: HOP-62 > 100 µM | NCI-H522 > 100 µM | OVCAR-8 > 100 µM | UO-31 > 100 µM | TK-10 > 100 µM | LOX IMVI > 100 µM | OVCAR-3 > 100 µM | NCI-H226 > 100 µM | OVCAR-5 > 100 µM | 786-0 > 100 µM | NCI-H23 > 100 µM | SF-295 > 100 µM | COLO 205 > 100 µM | IGROV-1 > 100 µM | SNB-75 > 100 µM | RPMI-8226 > 100 µM

CCOc1ccccc1NC(=O)C(=O)c1c(O)c2ccc(O)cc2oc1=O
inactive: HOP-62 > 100 µM | NCI-H522 > 100 µM | OVCAR-8 > 100 µM | UO-31 > 100 µM | TK-10 > 100 µM | LOX IMVI > 100 µM | OVCAR-3 > 100 µM | NCI-H226 > 100 µM | OVCAR-5 > 100 µM | 786-0 > 100 µM | NCI-H23 > 100 µM | SF-295 > 100 µM | COLO 205 > 100 µM | IGROV-1 > 100 µM | SF-539 > 100 µM | SNB-75 > 100 µM

CCCC(C)n1c(C)nc2c1C(=O)c1ccccc1C2=O (centres undefined)
inactive: HOP-62 20 µM | NCI-H522 23.1 µM | OVCAR-8 22.8 µM | UO-31 24.7 µM | TK-10 31 µM | LOX IMVI 8.71 µM | OVCAR-3 25.9 µM | NCI-H226 34.4 µM | 786-0 19.9 µM | NCI-H23 15.6 µM | SF-295 23.7 µM | COLO 205 23.3 µM | IGROV-1 37.4 µM | SF-539 13 µM | SNB-75 19.5 µM

COc1c(CC(C)=O)ccc2c1C(=O)c1ccc(C=O)c(OC(C)=O)c1C2=O
inactive: NCI-H522 2.15 µM | OVCAR-8 9.51 µM | UO-31 20.4 µM | TK-10 27.5 µM | LOX IMVI 14.3 µM | OVCAR-3 13.1 µM | NCI-H226 15.7 µM | OVCAR-5 15.3 µM | 786-0 6.32 µM | NCI-H23 > 10 µM | SF-295 21.2 µM | COLO 205 16.1 µM | IGROV-1 18.9 µM | SF-539 7.89 µM | SNB-75 20.5 µM | RPMI-8226 8.45 µM

From ChEMBL document CHEMBL1201862, “PubChem BioAssay data set” (2004)
